Results on twelve compounds are retold here after PMC6920704, “1-(Piperidin-3-yl)thymine amides as inhibitors of M. tuberculosis thymidylate kinase” (Journal of Enzyme Inhibition and Medicinal Chemistry, 2019).

One assay deals with T1, MtbTMPK (M. tuberculosis thymidylate kinase) (Mycobacterium tuberculosis, UniProt P9WKE1).
T1 construct: gene tmk
T1 sequence (P9WKE1 whole entry, looked up): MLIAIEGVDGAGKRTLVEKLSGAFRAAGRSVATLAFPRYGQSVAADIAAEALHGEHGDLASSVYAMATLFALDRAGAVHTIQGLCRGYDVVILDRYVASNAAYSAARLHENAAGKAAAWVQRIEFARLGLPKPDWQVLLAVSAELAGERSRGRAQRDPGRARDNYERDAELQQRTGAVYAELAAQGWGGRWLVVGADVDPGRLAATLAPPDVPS
The assay can be described thus: coupled spectrophotometric assay (NADH, […] nm). It counts as biochemical. As to conditions: read-out: IC50MtbTMPK.
In the case of `Cc1cn(C2CCCN(C(=O)c3cccc(Oc4ccccc4)c3)C2)c(=O)[nH]c1=O` (racemic) [compound 3, 3], the IC50 came out at 28 ± 2 µM. On the same count and under the same terms, for `Cc1cn(C2CCCN(C(=O)c3cccc(Oc4cccc(N(C)C)c4)c3)C2)c(=O)[nH]c1=O` (stereo not drawn) [4a] the value was 39 ± 3 µM; for `COc1cccc(Oc2cccc(C(=O)N3CCCC(n4cc(C)c(=O)[nH]c4=O)C3)c2)c1` (stereo not drawn) [4b], 15 ± 1 µM; for `Cc1cn(C2CCCN(C(=O)c3cccc(Oc4ccc(Cl)cc4)c3)C2)c(=O)[nH]c1=O` (stereo not drawn) [4c], 39 ± 19 µM.

In the case of `Cc1cn(C2CCCN(C(=O)c3cccc(Oc4ccc(F)cc4)c3)C2)c(=O)[nH]c1=O` (stereo not drawn) [4d], the IC50 came out at 18 ± 1 µM. For `Cc1cn(C2CCCN(C(=O)c3cccc(Oc4ccc([N+](=O)[O-])cc4)c3)C2)c(=O)[nH]c1=O` (stereo not drawn) [4e], the IC50 is 30 ± 3 µM. Still for that read-out and setting: the same measure for `Cc1cn(C2CCCN(C(=O)c3cccc(Oc4cccc(C(F)(F)F)c4)c3)C2)c(=O)[nH]c1=O` (stereo not drawn) [4f]: 53 ± 12 µM. As for `Cc1cn(C2CCCN(C(=O)c3cccc(Oc4ccc(Cl)c(Cl)c4)c3)C2)c(=O)[nH]c1=O` (stereo not drawn) [4g], the IC50 is 18 ± 1 µM. In the case of `Cc1cn(C2CCCN(C(=O)c3cccc(Oc4ccc(F)c(F)c4)c3)C2)c(=O)[nH]c1=O` (stereo not drawn) [4h], the IC50 is 23 ± 1 µM. With `Cc1cn(C2CCCN(C(=O)c3cccc(Oc4cc(Cl)cc(Cl)c4)c3)C2)c(=O)[nH]c1=O` (stereo not drawn) [4i], the IC50 was found to be 13 ± 1 µM. Regarding `Cc1cn(C2CCCN(C(=O)c3cccc(Oc4cc(F)cc(F)c4)c3)C2)c(=O)[nH]c1=O` (stereo not drawn) [4j], the IC50 is 31 ± 2 µM.

The next assay deals with T1, MtbTMPK (M. tuberculosis thymidylate kinase). The assay can be described thus: coupled spectrophotometric assay (NADH, […] nm). To be noted: 0.5 mM ATP, 0.05 mM dTMP, 2 mM MgCl2, 50 mM KCl, 50 mM Tris-HCl pH 7.4, 30 °C; unreliable (above the highest tested concentration of 0.12 mM). It counts as biochemical.
On to `Cc1cn(C2CCCN(C(=O)c3cccc(Oc4cc(C(F)(F)F)cc(C(F)(F)F)c4)c3)C2)c(=O)[nH]c1=O` (stereo not drawn) [4k], for which the “IC50MtbTMPK” value worked out at 158 ± 89 µM.
